Molecular target: SpCas9 (Streptococcus pyogenes serotype M1, UniProt Q99ZW2)
Test: Strand displacement assay (SDA) / cumulative activity assay (CAA), SpCas9 primary screen
Format: biochemical
Conditions: Primary Screen (150 min); for Normalized Z score 1: replicate 1; for Normalized Z score 2: replicate 2
Experimental: Screening of inhibitors was via a high throughput pipeline, as depicted in FIG. 29. The first screening is via a strand displacement assay (SDA) for detecting nuclease activity (FIG. 27A, 28A). The Cpf1/Cas12 protein/DNA complex has a different structure from Cas9 and requires optimization of the potential fluorophore attachment sites (Yamano, T et al., Cell, 2016). (FIG. 28A). Next screened compounds are evaluated in an eGFP cell assay, and for eGFP dose. Those compounds are further narrowed via a HiBiT assay and finally evaluated in the surveyor assay. SAR evaluations are performed to arrive at lead compounds for further evaluations and variations. General methodology for the assays is as described in at [0253]-[0301] of U.S. Patent Application 62/831,143 filed Apr. 8, 2019, incorporated herein by reference.
The 3′ end of the displacing single-stranded DNA was labeled with a quencher. Following nuclease cleavage of the substrate, the 3′-labeled quenching DNA strand (present in excess) could outcompete the weakly held 3′ strand to anneal to the 5′ strand. The resulting FRET fluorescence quenching provides an optical readout for nuclease activity (FIG. 62A).
Typically, SpCas9: gRNA (1:1.2 ratio) RNP was pre-formed at 1 μM in Cas9 assay buffer (20 mM Tris-HCl, pH=7.5, 100 mM KCl, 5 mM MgCl2) for 5 min at 4° C. before diluting to 10 nM in Cas9 assay buffer (2× final concentration). 25 μL of the Cas9 2× stock was manually dispensed to a black 384-well plate (Corning 3575) using electronic pipette. […] Following this, pre-annealed Alexa-Fluor 647 labeled substrate and quencher were also diluted to 1 nM and 5 nM in Cas9 assay buffer, respectively (2× stock solution). Next, 25 μL of the substrate/quencher solution was added manually to each well of the Cas9-containing 384-well plates using an electronic pipette and was incubated at 37° C. for 2.5 h. Fluorescent signals were read with the microplate reader set to read Alexa-Fluor 647 fluorescence. Assay was performed similarly with SaCas9 and FnCas12a using the respective enzyme, gRNA, substrate, and quencher oligos. […]

Chain of SpCas9 (Q99ZW2 whole entry): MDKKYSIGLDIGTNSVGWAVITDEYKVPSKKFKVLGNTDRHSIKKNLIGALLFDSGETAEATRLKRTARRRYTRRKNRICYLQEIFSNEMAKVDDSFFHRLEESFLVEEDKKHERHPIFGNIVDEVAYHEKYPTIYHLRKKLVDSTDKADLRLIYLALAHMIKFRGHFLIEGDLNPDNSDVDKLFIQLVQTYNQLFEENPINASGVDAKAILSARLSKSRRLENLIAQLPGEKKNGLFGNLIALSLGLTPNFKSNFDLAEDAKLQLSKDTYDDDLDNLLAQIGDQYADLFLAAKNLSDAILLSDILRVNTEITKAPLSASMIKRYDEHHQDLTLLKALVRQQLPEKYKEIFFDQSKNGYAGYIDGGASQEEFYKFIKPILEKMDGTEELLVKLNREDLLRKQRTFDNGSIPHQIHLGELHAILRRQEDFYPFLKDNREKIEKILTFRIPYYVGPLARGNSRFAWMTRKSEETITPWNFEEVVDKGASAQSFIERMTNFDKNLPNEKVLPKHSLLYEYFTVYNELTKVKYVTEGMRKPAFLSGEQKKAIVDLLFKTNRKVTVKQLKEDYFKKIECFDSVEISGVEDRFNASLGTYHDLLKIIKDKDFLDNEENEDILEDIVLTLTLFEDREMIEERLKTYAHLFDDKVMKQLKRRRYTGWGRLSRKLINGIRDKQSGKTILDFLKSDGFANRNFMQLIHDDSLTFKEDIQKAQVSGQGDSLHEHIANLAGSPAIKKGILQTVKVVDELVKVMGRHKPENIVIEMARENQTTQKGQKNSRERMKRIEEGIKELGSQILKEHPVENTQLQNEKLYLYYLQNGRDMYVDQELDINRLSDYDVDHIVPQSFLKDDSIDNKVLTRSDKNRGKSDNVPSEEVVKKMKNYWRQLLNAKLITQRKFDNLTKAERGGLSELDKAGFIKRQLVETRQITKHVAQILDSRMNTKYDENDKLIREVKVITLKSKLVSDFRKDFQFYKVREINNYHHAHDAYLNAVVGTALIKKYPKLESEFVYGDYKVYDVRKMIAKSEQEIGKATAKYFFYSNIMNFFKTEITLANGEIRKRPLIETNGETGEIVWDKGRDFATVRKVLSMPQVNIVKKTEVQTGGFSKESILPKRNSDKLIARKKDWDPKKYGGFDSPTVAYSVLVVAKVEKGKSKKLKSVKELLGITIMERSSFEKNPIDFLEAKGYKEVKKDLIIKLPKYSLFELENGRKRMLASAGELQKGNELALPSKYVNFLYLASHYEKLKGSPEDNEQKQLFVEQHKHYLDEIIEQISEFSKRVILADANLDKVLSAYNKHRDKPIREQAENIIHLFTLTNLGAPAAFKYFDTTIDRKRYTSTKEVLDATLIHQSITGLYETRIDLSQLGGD

Compound	Average Normalized Z score	avg z score primary	Normalized Z score 1	Normalized Z score 2	Average Normalized Z score (average of replicates)
COc1ccc(C(=O)Oc2cc(-c3ccc(OC)c(OC)c3)cc(=O)c3c(C)oc(C)c23)cc1 [Compound D132-0053]	0.20	3.32	0.21	0.19	–
CCCCC(=O)Nc1ccc(N2CCC(C(N)=O)(N3CCCCC3)CC2)c(C(=O)O)c1 [Compound G889-0171]	0.07	3.38	0.07	0.07	–
CN1CCN(c2ccc(CNC(=O)Cn3ccc4c(SCc5ccccc5)nccc43)cc2)CC1 [Compound M056-0617]	–	4.82	0.05	0.07	0.06
O=C([O-])C(O)Cc1ccc(O)c(O)c1.[Na+] (centres unmarked) [Compound S2401]	–	4.93	0.22	0.29	0.25
Cl.NC(CO)C(=O)NNCc1ccc(O)c(O)c1O (centres unmarked) [Compound S2453]	–	5.09	0.21	0.32	0.26
CCCN(CCC)C1=CC(=O)C(C)=C(C)C1=O [Compound T0502-3042]	–	4.92	0.32	0.30	0.31
COc1ccc(-n2c(N(C(C)=O)C(C)=O)c(C#N)c3nc4ccccc4nc32)cc1 [Compound T0503-6223]	–	14.21	0.16	0.16	0.16
O=C(N/N=C/c1ccc(O)c(O)c1O)c1cccc(S(=O)(=O)Nc2ccccc2Cl)c1 [Compound T0506-5702]	–	4.48	0.07	0.07	0.07
Cc1ccc(C(=O)n2ncn(C)c2=S)cc1 [Compound T0510-3476]	–	28.56	0.39	0.42	0.41
O=C(CCC(=O)c1ccc(F)cc1)OC1CCOC1=O (centres unmarked) [Compound T0512-8635]	–	4.05	0.04	0.04	0.04
O=C(CSc1nnc2ccccn12)Nc1cc(C(=O)O)cc(C(=O)O)c1 [Compound T0513-0201]	–	11.30	0.10	0.13	0.11
CCOC(=O)C1CCCN(Cn2nnn(-c3ccc(OC)cc3)c2=S)C1 (centres unmarked) [Compound T0513-0218]	–	3.45	0.04	0.03	0.04
O=C(Nc1nnc(C2CC2)s1)c1ccc2ncsc2c1 [Compound T0514-1693]	–	5.62	0.07	0.07	0.07
O=C(O)c1cccc(NCC2SC(=S)NC2=O)c1 (centres unmarked) [Compound T0514-3358]	–	4.79	0.32	0.27	0.30
